Patent publication US4254110A, “Pentofuranosyl anthracyclines, intermediates in and method for their preparation and compositions and use thereof” (Farmitalia Carlo Erba S.p.A., priority 1979, dated 1981)
≈ marks a conversion by molar mass, not a printed value. Counter-ions that a name gives are not always drawn. Like-named read-outs stand apart in the source and are kept apart here.

Tests used:
[1] = test system: P-388 leukemia; test: Antitumor activity against P-388 leukemia in mice; type: in vivo; conditions: for Toxic Deaths: macroscopic autoptic findings; for antitumor activity compared with daunorubicin and doxorubicin: at the tolerated doses (100~200 mg/Kg)
Description: The antitumor activity of the same compounds was tested against P-388 leukemia in mice.
^(a) Mice were treated i.p. on day 1 after tumor cell inoculation.
^(b) Evaluated on the basis of macroscopic autoptic findings.
^(c) Injected as a water solution.
^(d) Injection as a 5% aqueous ethanol suspension.
^(e) Injected as a 1:9 Tween 80 : water suspension.

[2] = test system: HeLa cells; test: Cytotoxic activity against HeLa cells in vitro (effect on HeLa cells viability); type: cell-based; conditions: Homo sapiens, read-out: ID50 (effect on HeLa cells viability in vitro)
Description: The cytotoxic activity of several of the new compounds according to the invention were tested against HeLa cells in vitro (time of exposure to the compounds=24 hours) in comparison with daunorubicin and doxorubicin.

[3] = dose 50 mg/Kg i.p. on day 1, III-a as 5% aqueous ethanol suspension, others as 1:9 Tween 80:water suspension
[4] = dose 100 mg/Kg i.p. on day 1, III-a as 5% aqueous ethanol suspension, others as 1:9 Tween 80:water suspension
[5] = dose 200 mg/Kg i.p. on day 1, III-a as 5% aqueous ethanol suspension, others as 1:9 Tween 80:water suspension
[6] = dose 4.4 mg/Kg i.p. on day 1, water solution
[7] = dose 4.4 mg/Kg i.p. on day 1 after tumor cell inoculation, water solution
[8] = dose 6.6 mg/Kg i.p. on day 1, water solution
[9] = dose 6.6 mg/Kg i.p. on day 1 after tumor cell inoculation, water solution

COc1cccc2c1C(=O)c1c(O)c3c(c(O)c1C2=O)C[C@@](O)(C(C)=O)C[C@@H]3O[C@H]1CC(C=O)[C@H](C)O1 (single isomer, unassigned) [Compound III-b]
T/C % [1, 3]: 110%
Toxic Deaths [1, 3]: 0/10
T/C % [1, 4]: 110%
Toxic Deaths [1, 4]: 0/10
T/C % [1, 5]: 125%
Toxic Deaths [1, 5]: 0/9
IC50 ([2]; HeLa cells, 24 hours exposure): 1.75 ng/mL (≈ 0.00343 µM)

COc1cccc2c1C(=O)c1c(O)c3c(c(O)c1C2=O)C[C@@](O)(C(=O)CO)C[C@@H]3O[C@H]1CC(C=O)[C@H](C)O1 (stereo partly drawn) [Compound III (R3 = OH), 7-O-(2,3,5-trideoxy-3-C-formyl-α-pentofuranosyl)-adriamycinone]
T/C % [1, 3]: 163%
Toxic Deaths [1, 3]: 0/9
T/C % [1, 4]: 190%
Toxic Deaths [1, 4]: 0/9
T/C % [1, 5]: 231%
Toxic Deaths [1, 5]: 1/7
IC50 ([2]; HeLa cells, 24 hours exposure): 140 ng/mL (≈ 0.266 µM)

COc1cccc2c1C(=O)c1c(O)c3c(c(O)c1C2=O)C[C@@](O)(C(C)=O)C[C@@H]3O[C@H]1CC(C=O)[C@H](C)O1 (stereo partly drawn) [Compound III-a, 7-O-(2,3,5-trideoxy-3-C-formyl-α-L-threopentofuranosyl)-daunomycinone]
antitumor activity compared with daunorubicin and doxorubicin [1]: higher than or comparable to those of both daunorubicin and doxorubicin
T/C % [1, 3]: 168%
Toxic Deaths [1, 3]: 0/8
T/C % [1, 4]: 163%
Toxic Deaths [1, 4]: 0/5
T/C % [1, 5]: 190%
Toxic Deaths [1, 5]: 2/5
IC50 ([2]; HeLa cells, 24 hours exposure): 320 ng/mL (≈ 0.627 µM)

COc1cccc2c1C(=O)c1c(O)c3c(c(O)c1C2=O)C[C@@](O)(C(C)=O)C[C@@H]3O[C@H]1CC(CO)[C@H](C)O1 (stereo partly drawn) [Compound IV (R3 = H), 7-O-(2,3,5-trideoxy-3-C-hydroxymethyl-α-L-threopentofuranosyl)-daunomycinone]
antitumor activity compared with daunorubicin and doxorubicin [1]: higher than or comparable to those of both daunorubicin and doxorubicin
T/C % [1, 3]: 130%
Toxic Deaths [1, 3]: 0/7
T/C % [1, 4]: 160%
Toxic Deaths [1, 4]: 0/6
T/C % [1, 5]: 220%
Toxic Deaths [1, 5]: 0/5
IC50 ([2]; HeLa cells, 24 hours exposure): 1.6 ng/mL (≈ 0.00312 µM)

COc1cccc2c1C(=O)c1c(O)c3c(c(O)c1C2=O)C[C@@](O)(C(C)=O)C[C@@H]3O[C@H]1C[C@H](N)[C@H](O)[C@H](C)O1 [Daunorubicin . HCl, daunorubicin, reference compound]
Toxic Deaths ([1]; dose 2.9 mg/Kg i.p. on day 1, water solution): 0/37
T/C % ([1]; dose 2.9 mg/Kg i.p. on day 1 after tumor cell inoculation, water solution): 169%
Toxic Deaths [1, 6]: 0/38
T/C % [1, 7]: 167%
Toxic Deaths [1, 8]: 19/38
T/C % [1, 9]: 157%
IC50 ([2]; HeLa, 24 h): 7.4 ng/mL

COc1cccc2c1C(=O)c1c(O)c3c(c(O)c1C2=O)C[C@@](O)(C(=O)CO)C[C@@H]3O[C@H]1C[C@H](N)[C@H](O)[C@H](C)O1 [Doxorubicin . HCl, doxorubicin, reference compound]
Toxic Deaths [1, 6]: 0/17
T/C % [1, 7]: 195%
Toxic Deaths [1, 8]: 0/17
T/C % [1, 9]: 206%
Toxic Deaths ([1]; dose 10.0 mg/Kg i.p. on day 1, water solution): 4/18
T/C % ([1]; dose 10.0 mg/Kg i.p. on day 1 after tumor cell inoculation, water solution): 244%
IC50 ([2]; HeLa, 24 h): 10 ng/mL

COc1cccc2c1C(=O)c1c(O)c3c(c(O)c1C2=O)C[C@@](O)(C(=O)CO)C[C@@H]3O[C@H]1CC(C=O)[C@H](C)O1 (stereo partly drawn) [III (R3 =OH)]
antitumor activity compared with daunorubicin and doxorubicin [1]: higher than or comparable to those of both daunorubicin and doxorubicin
